Data from EP0327492A1, “Herbicidally and plantgrowth regulatory active quinoline and pyrindine compounds” (CIBA-GEIGY AG, priority 1988, dated 1989).

Experiments:
Format in all cases: in vivo
Abutilon [1] = assay: Pre-emergent herbicidal action (B.2); settings: 500 bis 2000 [g/ha], evaluated after 3 weeks
Protocol: (§1) Im Gewächshaus wird unmittelbar nach der Einsaat der Versuchspflanzen in Saatschalen die Erdoberfläche mit einer wässrigen Dispersion der Wirkstoffe, erhalten aus einem 25 %igen Emulsionskonzentrat behandelt. Es werden Konzentrationen von 2000-500 g Wirksubstanz/Hektar angewendet. Die Saatschalen werden im Gewächshaus bei 22-25° C und 50-70 % relativer Luftfeuchtigkeit gehalten und der Versuch nach 3 Wochen ausgewertet und die Resultate nach folgender Notenskala ausgewertet. • 1 Pflanze hat nicht gekeimt oder ist eingegangen • 2-3 sehr starke Schäden • 4 starke Schäden • 5 mittlere Schäden, die Pflanzen sind verkümmert • 6 Schäden, die Pflanze kann regenerieren • 7-8 leichte Schäden • 9 normales Wachstum, wie das unbehandelter Pflanzen
(§2) Boniturnoten von 1 bis 4 (insbesondere von 1 bis 3) weisen auf eine gute bis sehr gute Herbizidwirkung hin. Boniturnoten von 6 bis 9 (insbesondere 7 bis 9) weisen auf eine gute Toleranz (insbesondere bei Kulturpflanzen) hin.

Alopecurus myos. [2] = assay: Pre-emergent herbicidal action (B.2); settings: 500 bis 2000 [g/ha], evaluated after 3 weeks
Protocol: as §1, §2

Amaranthus ret. [3] = assay: Pre-emergent herbicidal action (B.2); settings: 500 bis 2000 [g/ha], evaluated after 3 weeks
Protocol: as §1, §2

Avena fatua [4] = assay: Pre-emergent herbicidal action (B.2); settings: 500 bis 2000 [g/ha], evaluated after 3 weeks
Protocol: as §1, §2

Bromus tectorum [5] = assay: Pre-emergent herbicidal action (B.2); settings: 500 bis 2000 [g/ha], evaluated after 3 weeks
Protocol: as §1, §2

Chenopodium Sp. [6] = assay: Pre-emergent herbicidal action (B.2); settings: 500 bis 2000 [g/ha], evaluated after 3 weeks
Protocol: as §1, §2

Chrysanthe. leuc. [7] = assay: Pre-emergent herbicidal action (B.2); settings: 500 bis 2000 [g/ha], evaluated after 3 weeks
Protocol: as §1, §2

Digitaria sang. [8] = assay: Pre-emergent herbicidal action (B.2); settings: 500 bis 2000 [g/ha], evaluated after 3 weeks
Protocol: as §1, §2

Echinochloa crus galli [9] = assay: Pre-emergent herbicidal action (B.2); settings: 500 bis 2000 [g/ha], evaluated after 3 weeks
Protocol: as §1, §2

Galium aparine [10] = assay: Pre-emergent herbicidal action (B.2); settings: 500 bis 2000 [g/ha], evaluated after 3 weeks
Protocol: as §1, §2

Ipomoea = assay: Pre-emergent herbicidal action (B.2); settings: 500 bis 2000 [g/ha], evaluated after 3 weeks
Protocol: as §1, §2

Lolium perenne [11] = assay: Pre-emergent herbicidal action (B.2); settings: 500 bis 2000 [g/ha], evaluated after 3 weeks
Protocol: as §1, §2

Sinapis [12] = assay: Pre-emergent herbicidal action (B.2); settings: 500 bis 2000 [g/ha], evaluated after 3 weeks
Protocol: as §1, §2

Solanum nigrum [13] = assay: Pre-emergent herbicidal action (B.2); settings: 500 bis 2000 [g/ha], evaluated after 3 weeks
Protocol: as §1, §2

Sorghum halep. [14] = assay: Pre-emergent herbicidal action (B.2); settings: 500 bis 2000 [g/ha], evaluated after 3 weeks
Protocol: as §1, §2

Stellaria [15] = assay: Pre-emergent herbicidal action (B.2); settings: 500 bis 2000 [g/ha], evaluated after 3 weeks
Protocol: as §1, §2

Veronica Sp. [16] = assay: Pre-emergent herbicidal action (B.2); settings: 500 bis 2000 [g/ha], evaluated after 3 weeks
Protocol: as §1, §2

Soja [17] = assay: Pre-emergent herbicidal action (B.2), crop tolerance; settings: 500 bis 2000 [g/ha], evaluated after 3 weeks
Protocol: as §1, §2

Abutilon [18] = assay: Post-emergent herbicidal action, contact herbicide (B.3); settings: 500 bis 2000 [g/ha], 15 days after treatment
Summary of the method: (§3)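 Weeds at the 4- to 6-leaf stage were sprayed post-emergence with an aqueous dispersion of active ingredient at 2000-500 g a.i./ha. Plants were held at 24-26 °C and 45-60% relative humidity. Damage was scored 15 days after treatment on a 1-9 scale, from 1 (dead) to 9 (growth like untreated plants).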

Alopecurus myos. [19] = assay: as above; settings: 500 bis 2000 [g/ha], 15 days after treatment
Summary of the method: as §3

Amaranthus ret. [20] = assay: as above; settings: 500 bis 2000 [g/ha], 15 days after treatment
Summary of the method: as §3

Avena fatua [21] = assay: as above; settings: 500 bis 2000 [g/ha], 15 days after treatment
Summary of the method: as §3

Bromus tectorum [22] = assay: as above; settings: 500 bis 2000 [g/ha], 15 days after treatment
Summary of the method: as §3

Chenopodium Sp. [23] = assay: as above; settings: 500 bis 2000 [g/ha], 15 days after treatment
Summary of the method: as §3

Chrysanthe. leuc. [24] = assay: as above; settings: 500 bis 2000 [g/ha], 15 days after treatment
Summary of the method: as §3

Digitaria sang. [25] = assay: as above; settings: 500 bis 2000 [g/ha], 15 days after treatment
Summary of the method: as §3

Echinochloa crus galli [26] = assay: as above; settings: 500 bis 2000 [g/ha], 15 days after treatment
Summary of the method: as §3

Galium aparine [27] = assay: as above; settings: 500 bis 2000 [g/ha], 15 days after treatment
Summary of the method: as §3

Lolium perenne [28] = assay: as above; settings: 500 bis 2000 [g/ha], 15 days after treatment
Summary of the method: as §3

Sinapis [29] = assay: as above; settings: 500 bis 2000 [g/ha], 15 days after treatment
Summary of the method: as §3

Solanum nigrum [30] = assay: as above; settings: 500 bis 2000 [g/ha], 15 days after treatment
Summary of the method: as §3

Sorghum halep. [31] = assay: as above; settings: 500 bis 2000 [g/ha], 15 days after treatment
Summary of the method: as §3

Stellaria [32] = assay: as above; settings: 500 bis 2000 [g/ha], 15 days after treatment
Summary of the method: as §3

Veronica Sp. [33] = assay: as above; settings: 500 bis 2000 [g/ha], 15 days after treatment
Summary of the method: as §3

Xanthium Sp. = assay: as above; settings: 500 bis 2000 [g/ha], 15 days after treatment
Summary of the method: as §3

Baumwolle = assay: Post-emergent herbicidal action (B.3), crop tolerance; settings: 500 bis 2000 [g/ha], 15 days after treatment
Protocol: as §1, §2
(§4) Eine Anzahl Unkräuter, sowohl monokotyle wie dikotyle, werden nach dem Auflaufen (im 4- bis 6-Blattstadium) mit einer wässrigen Wirkstoffdispersion in einer Dosierung von 2000-500 g Wirksubstanz pro Hektar auf die Pflanzen gespritzt und diese bei 24°-26°C und 45-60 % relativer Luftfeuchtigkeit gehalten. 15 Tage nach der Behandlung wird der Versuch nach dem in Beispiel B.2. gegebenen Massstab bewertet.

Soja [34] = assay: as above; settings: 500 bis 2000 [g/ha], 15 days after treatment
Protocol: as §1, §2, §4

Compound: CC1CCc2nc(C3=NC(=O)C(C)(C(C)C)N3)c(C(=O)O)cc2C1 (stereo not shown) [Verbindung 2.01, 2-(5-Isopropyl-5-methyl-1H-imidazol-4-on-2-yl)-6-methyl-5,6,7,8-tetrahydrochinolin-3-carbonsäure]
- Herbizidwirkung (Abutilon [1]): gute bis sehr gute Herbizidwirkung (Boniturnoten von 1 bis 4 (insbesondere von 1 bis 3) weisen auf eine gute bis sehr gute Herbizidwirkung hin)
- Herbizidwirkung (Alopecurus myos. [2]): gute bis sehr gute Herbizidwirkung (Boniturnoten von 1 bis 4 (insbesondere von 1 bis 3) weisen auf eine gute bis sehr gute Herbizidwirkung hin)
- Herbizidwirkung (Amaranthus ret. [3]): gute bis sehr gute Herbizidwirkung (Boniturnoten von 1 bis 4 (insbesondere von 1 bis 3) weisen auf eine gute bis sehr gute Herbizidwirkung hin)
- Herbizidwirkung (Avena fatua [4]): gute bis sehr gute Herbizidwirkung (Boniturnoten von 1 bis 4 (insbesondere von 1 bis 3) weisen auf eine gute bis sehr gute Herbizidwirkung hin)
- Herbizidwirkung (Bromus tectorum [5]): gute bis sehr gute Herbizidwirkung (Boniturnoten von 1 bis 4 (insbesondere von 1 bis 3) weisen auf eine gute bis sehr gute Herbizidwirkung hin)
- Herbizidwirkung (Chenopodium Sp. [6]): gute bis sehr gute Herbizidwirkung (Boniturnoten von 1 bis 4 (insbesondere von 1 bis 3) weisen auf eine gute bis sehr gute Herbizidwirkung hin)
- Herbizidwirkung (Chrysanthe. leuc. [7]): gute bis sehr gute Herbizidwirkung (Boniturnoten von 1 bis 4 (insbesondere von 1 bis 3) weisen auf eine gute bis sehr gute Herbizidwirkung hin)
- Herbizidwirkung (Digitaria sang. [8]): gute bis sehr gute Herbizidwirkung (Boniturnoten von 1 bis 4 (insbesondere von 1 bis 3) weisen auf eine gute bis sehr gute Herbizidwirkung hin)
- Herbizidwirkung (Echinochloa crus galli [9]): gute bis sehr gute Herbizidwirkung (Boniturnoten von 1 bis 4 (insbesondere von 1 bis 3) weisen auf eine gute bis sehr gute Herbizidwirkung hin)
- Herbizidwirkung (Galium aparine [10]): gute bis sehr gute Herbizidwirkung (Boniturnoten von 1 bis 4 (insbesondere von 1 bis 3) weisen auf eine gute bis sehr gute Herbizidwirkung hin)
- Herbizidwirkung (Ipomoea): gute bis sehr gute Herbizidwirkung (Boniturnoten von 1 bis 4 (insbesondere von 1 bis 3) weisen auf eine gute bis sehr gute Herbizidwirkung hin)
- Herbizidwirkung (Lolium perenne [11]): gute bis sehr gute Herbizidwirkung (Boniturnoten von 1 bis 4 (insbesondere von 1 bis 3) weisen auf eine gute bis sehr gute Herbizidwirkung hin)
- Herbizidwirkung (Sinapis [12]): gute bis sehr gute Herbizidwirkung (Boniturnoten von 1 bis 4 (insbesondere von 1 bis 3) weisen auf eine gute bis sehr gute Herbizidwirkung hin)
- Herbizidwirkung (Solanum nigrum [13]): gute bis sehr gute Herbizidwirkung (Boniturnoten von 1 bis 4 (insbesondere von 1 bis 3) weisen auf eine gute bis sehr gute Herbizidwirkung hin)
- Herbizidwirkung (Sorghum halep. [14]): gute bis sehr gute Herbizidwirkung (Boniturnoten von 1 bis 4 (insbesondere von 1 bis 3) weisen auf eine gute bis sehr gute Herbizidwirkung hin)
- Herbizidwirkung (Stellaria [15]): gute bis sehr gute Herbizidwirkung (Boniturnoten von 1 bis 4 (insbesondere von 1 bis 3) weisen auf eine gute bis sehr gute Herbizidwirkung hin)
- Herbizidwirkung (Veronica Sp. [16]): gute bis sehr gute Herbizidwirkung (Boniturnoten von 1 bis 4 (insbesondere von 1 bis 3) weisen auf eine gute bis sehr gute Herbizidwirkung hin)
- Toleranz (im Wachstum beeinflusst) (Soja [17]): gute Toleranz (Boniturnoten von 6 bis 9 (insbesondere 7 bis 9) weisen auf eine gute Toleranz (insbesondere bei Kulturpflanzen) hin)
- Herbizidwirkung (Abutilon [18]): gute bis sehr gute Herbizidwirkung (Boniturnoten von 1 bis 4 (insbesondere von 1 bis 3) weisen auf eine gute bis sehr gute Herbizidwirkung hin)
- Herbizidwirkung (Alopecurus myos. [19]): gute bis sehr gute Herbizidwirkung (Boniturnoten von 1 bis 4 (insbesondere von 1 bis 3) weisen auf eine gute bis sehr gute Herbizidwirkung hin)
- Herbizidwirkung (Amaranthus ret. [20]): gute bis sehr gute Herbizidwirkung (Boniturnoten von 1 bis 4 (insbesondere von 1 bis 3) weisen auf eine gute bis sehr gute Herbizidwirkung hin)
- Herbizidwirkung (Avena fatua [21]): gute bis sehr gute Herbizidwirkung (Boniturnoten von 1 bis 4 (insbesondere von 1 bis 3) weisen auf eine gute bis sehr gute Herbizidwirkung hin)
- Herbizidwirkung (Bromus tectorum [22]): gute bis sehr gute Herbizidwirkung (Boniturnoten von 1 bis 4 (insbesondere von 1 bis 3) weisen auf eine gute bis sehr gute Herbizidwirkung hin)
- Herbizidwirkung (Chenopodium Sp. [23]): gute bis sehr gute Herbizidwirkung (Boniturnoten von 1 bis 4 (insbesondere von 1 bis 3) weisen auf eine gute bis sehr gute Herbizidwirkung hin)
- Herbizidwirkung (Chrysanthe. leuc. [24]): gute bis sehr gute Herbizidwirkung (Boniturnoten von 1 bis 4 (insbesondere von 1 bis 3) weisen auf eine gute bis sehr gute Herbizidwirkung hin)
- Herbizidwirkung (Digitaria sang. [25]): gute bis sehr gute Herbizidwirkung (Boniturnoten von 1 bis 4 (insbesondere von 1 bis 3) weisen auf eine gute bis sehr gute Herbizidwirkung hin)
- Herbizidwirkung (Echinochloa crus galli [26]): gute bis sehr gute Herbizidwirkung (Boniturnoten von 1 bis 4 (insbesondere von 1 bis 3) weisen auf eine gute bis sehr gute Herbizidwirkung hin)
- Herbizidwirkung (Galium aparine [27]): gute bis sehr gute Herbizidwirkung (Boniturnoten von 1 bis 4 (insbesondere von 1 bis 3) weisen auf eine gute bis sehr gute Herbizidwirkung hin)
- Herbizidwirkung (Lolium perenne [28]): gute bis sehr gute Herbizidwirkung (Boniturnoten von 1 bis 4 (insbesondere von 1 bis 3) weisen auf eine gute bis sehr gute Herbizidwirkung hin)
- Herbizidwirkung (Sinapis [29]): gute bis sehr gute Herbizidwirkung (Boniturnoten von 1 bis 4 (insbesondere von 1 bis 3) weisen auf eine gute bis sehr gute Herbizidwirkung hin)
- Herbizidwirkung (Solanum nigrum [30]): gute bis sehr gute Herbizidwirkung (Boniturnoten von 1 bis 4 (insbesondere von 1 bis 3) weisen auf eine gute bis sehr gute Herbizidwirkung hin)
- Herbizidwirkung (Sorghum halep. [31]): gute bis sehr gute Herbizidwirkung (Boniturnoten von 1 bis 4 (insbesondere von 1 bis 3) weisen auf eine gute bis sehr gute Herbizidwirkung hin)
- Herbizidwirkung (Stellaria [32]): gute bis sehr gute Herbizidwirkung (Boniturnoten von 1 bis 4 (insbesondere von 1 bis 3) weisen auf eine gute bis sehr gute Herbizidwirkung hin)
- Herbizidwirkung (Veronica Sp. [33]): gute bis sehr gute Herbizidwirkung (Boniturnoten von 1 bis 4 (insbesondere von 1 bis 3) weisen auf eine gute bis sehr gute Herbizidwirkung hin)
- Herbizidwirkung (Xanthium Sp.): gute bis sehr gute Herbizidwirkung (Boniturnoten von 1 bis 4 (insbesondere von 1 bis 3) weisen auf eine gute bis sehr gute Herbizidwirkung hin)
- Toleranz (im Wachstum beeinflusst) (Baumwolle): gute Toleranz (Boniturnoten von 6 bis 9 (insbesondere 7 bis 9) weisen auf eine gute Toleranz (insbesondere bei Kulturpflanzen) hin)
- Toleranz (im Wachstum beeinflusst) (Soja [34]): gute Toleranz (Boniturnoten von 6 bis 9 (insbesondere 7 bis 9) weisen auf eine gute Toleranz (insbesondere bei Kulturpflanzen) hin)
